Data: patent US10494332B2, “Protein tyrosine phosphatases or SHP2 inhibitors and uses thereof” (Indiana University Research and Technology Corporation, priority 2015, dated 2019)

Each molecule was assayed against T1, LMWPTP (Homo sapiens, UniProt P24666) (assay: PTP inhibition assay (pNPP)). Conditions: pNPP at Km, pH 7.0, 25° C.
T1 sequence (P24666 1-158): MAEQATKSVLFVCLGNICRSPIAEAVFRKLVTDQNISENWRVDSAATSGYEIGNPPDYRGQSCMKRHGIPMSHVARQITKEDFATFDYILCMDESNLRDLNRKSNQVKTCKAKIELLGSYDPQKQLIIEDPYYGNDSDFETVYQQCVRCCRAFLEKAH
Format: biochemical

Row | SMILES | IC50 [µM]
1 | O=C(Nc1nc2ccc(OC(F)(F)F)cc2s1)C(c1ccccc1)S(=O)(=O)O (stereo not shown) [Compound L319N15-09] | 5.3
2 | COc1ccc2nc(NC(=O)C(c3ccccc3)S(=O)(=O)O)sc2c1 (stereo not shown) [Compound L319N15-10] | 5.8
3 | Nc1ccc2nc(NC(=O)C(c3ccccc3)S(=O)(=O)O)sc2c1 (stereo not shown) [Compound L319N15-12] | 14
4 | O=C(O)c1ccc2nc(NC(=O)C(c3ccccc3)S(=O)(=O)O)sc2c1 (stereo not shown) [Compound L319N15-13] | 70

These molecules were tested against T2, Laforin (Homo sapiens, UniProt O95278) (assay: PTP inhibition assay (pNPP)). Conditions: 200 μM.
T2 sequence (O95278 1-331): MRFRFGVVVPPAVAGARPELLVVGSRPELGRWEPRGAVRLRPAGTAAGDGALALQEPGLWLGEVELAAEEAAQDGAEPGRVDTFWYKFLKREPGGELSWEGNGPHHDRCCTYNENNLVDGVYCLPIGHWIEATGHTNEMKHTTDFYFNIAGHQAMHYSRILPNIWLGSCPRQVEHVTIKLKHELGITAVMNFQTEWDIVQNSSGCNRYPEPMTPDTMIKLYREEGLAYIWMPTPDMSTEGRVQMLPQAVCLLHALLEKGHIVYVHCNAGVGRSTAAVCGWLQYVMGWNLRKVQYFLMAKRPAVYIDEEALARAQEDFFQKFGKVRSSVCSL
Format: biochemical

Row | SMILES | Inhibition of Laforin at 200 μM
5 | O=C(O)c1ccc2nc(NC(=O)C(c3ccccc3)S(=O)(=O)O)sc2c1 (stereo not shown) [Compound L319N15-13] | did not inhibit

Same assay, conditions: pNPP at Km, pH 7.0, 25° C.; read-out: IC50 Laforin

Row | SMILES | IC50 [µM]
6 | O=C(Nc1nc2ccc(OC(F)(F)F)cc2s1)C(c1ccccc1)S(=O)(=O)O (stereo not shown) [Compound L319N15-09] | 3.2
7 | COc1ccc2nc(NC(=O)C(c3ccccc3)S(=O)(=O)O)sc2c1 (stereo not shown) [Compound L319N15-10] | 2.1
8 | Nc1ccc2nc(NC(=O)C(c3ccccc3)S(=O)(=O)O)sc2c1 (stereo not shown) [Compound L319N15-12] | 3.3
9 | O=C(O)c1ccc2nc(NC(=O)C(c3ccccc3)S(=O)(=O)O)sc2c1 (stereo not shown) [Compound L319N15-13] | > 200

These molecules were tested against T3, PTP1B (Homo sapiens, UniProt P18031) (assay: PTP inhibition assay (pNPP)). Conditions: pNPP at Km, pH 7.0, 25° C.
T3 sequence (P18031 1-435): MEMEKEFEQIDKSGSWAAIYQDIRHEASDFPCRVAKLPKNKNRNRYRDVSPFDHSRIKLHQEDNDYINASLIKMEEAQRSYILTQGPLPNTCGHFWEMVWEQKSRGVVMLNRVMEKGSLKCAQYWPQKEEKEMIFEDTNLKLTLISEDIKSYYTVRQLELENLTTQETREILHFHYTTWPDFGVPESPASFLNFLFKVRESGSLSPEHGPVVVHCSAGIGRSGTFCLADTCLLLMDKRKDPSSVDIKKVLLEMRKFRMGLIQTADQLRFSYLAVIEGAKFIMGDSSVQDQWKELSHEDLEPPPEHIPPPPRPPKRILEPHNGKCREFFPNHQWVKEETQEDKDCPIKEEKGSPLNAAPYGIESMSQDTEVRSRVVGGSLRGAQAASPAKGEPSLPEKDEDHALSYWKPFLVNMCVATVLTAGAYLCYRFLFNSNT
Format: biochemical

Row | SMILES | IC50 [µM]
10 | O=C(Nc1nc2ccc(OC(F)(F)F)cc2s1)C(c1ccccc1)S(=O)(=O)O (stereo not shown) [Compound L319N15-09] | 160
11 | COc1ccc2nc(NC(=O)C(c3ccccc3)S(=O)(=O)O)sc2c1 (stereo not shown) [Compound L319N15-10] | > 200
12 | Nc1ccc2nc(NC(=O)C(c3ccccc3)S(=O)(=O)O)sc2c1 (stereo not shown) [Compound L319N15-12] | > 200
13 | O=C(O)c1ccc2nc(NC(=O)C(c3ccccc3)S(=O)(=O)O)sc2c1 (stereo not shown) [Compound L319N15-13] | > 200

These molecules were tested against T4, LYP (Homo sapiens, UniProt Q9Y2R2) (assay: PTP inhibition assay (pNPP)). Conditions: pNPP at Km, pH 7.0, 25° C.
T4 sequence (Q9Y2R2 1-807): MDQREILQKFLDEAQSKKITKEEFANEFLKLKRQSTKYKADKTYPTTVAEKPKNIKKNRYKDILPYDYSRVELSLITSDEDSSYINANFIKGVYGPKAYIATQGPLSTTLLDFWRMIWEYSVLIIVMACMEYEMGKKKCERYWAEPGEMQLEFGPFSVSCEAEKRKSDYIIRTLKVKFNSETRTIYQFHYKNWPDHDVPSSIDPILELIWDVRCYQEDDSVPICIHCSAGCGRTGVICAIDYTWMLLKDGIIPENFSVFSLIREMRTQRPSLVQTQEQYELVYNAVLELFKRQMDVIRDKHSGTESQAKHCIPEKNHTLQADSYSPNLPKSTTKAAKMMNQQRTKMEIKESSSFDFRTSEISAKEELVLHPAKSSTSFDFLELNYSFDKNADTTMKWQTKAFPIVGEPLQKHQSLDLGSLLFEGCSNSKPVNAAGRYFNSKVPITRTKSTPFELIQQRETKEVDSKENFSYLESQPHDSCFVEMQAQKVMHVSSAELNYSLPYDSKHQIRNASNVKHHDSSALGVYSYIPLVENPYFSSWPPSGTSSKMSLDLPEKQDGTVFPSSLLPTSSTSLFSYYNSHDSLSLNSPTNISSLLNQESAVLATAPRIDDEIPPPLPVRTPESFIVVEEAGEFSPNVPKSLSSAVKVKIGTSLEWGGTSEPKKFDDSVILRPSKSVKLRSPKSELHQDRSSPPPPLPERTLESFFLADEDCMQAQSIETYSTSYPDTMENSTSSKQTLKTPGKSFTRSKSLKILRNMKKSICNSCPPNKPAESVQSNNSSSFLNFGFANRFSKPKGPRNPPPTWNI
Format: biochemical

Row | SMILES | IC50 [µM]
14 | O=C(Nc1nc2ccc(OC(F)(F)F)cc2s1)C(c1ccccc1)S(=O)(=O)O (stereo not shown) [Compound L319N15-09] | 20
15 | COc1ccc2nc(NC(=O)C(c3ccccc3)S(=O)(=O)O)sc2c1 (stereo not shown) [Compound L319N15-10] | > 200
16 | Nc1ccc2nc(NC(=O)C(c3ccccc3)S(=O)(=O)O)sc2c1 (stereo not shown) [Compound L319N15-12] | 166
17 | O=C(O)c1ccc2nc(NC(=O)C(c3ccccc3)S(=O)(=O)O)sc2c1 (stereo not shown) [Compound L319N15-13] | 31

The molecules below were run against T5, SHP2 (Homo sapiens, UniProt Q06124) (assay: SHP2 phosphatase inhibition assay (pNPP)). Conditions: pNPP at Km, pH 7.0, 25° C.; read-out: IC50 SHP2.
T5 sequence (Q06124 224-528): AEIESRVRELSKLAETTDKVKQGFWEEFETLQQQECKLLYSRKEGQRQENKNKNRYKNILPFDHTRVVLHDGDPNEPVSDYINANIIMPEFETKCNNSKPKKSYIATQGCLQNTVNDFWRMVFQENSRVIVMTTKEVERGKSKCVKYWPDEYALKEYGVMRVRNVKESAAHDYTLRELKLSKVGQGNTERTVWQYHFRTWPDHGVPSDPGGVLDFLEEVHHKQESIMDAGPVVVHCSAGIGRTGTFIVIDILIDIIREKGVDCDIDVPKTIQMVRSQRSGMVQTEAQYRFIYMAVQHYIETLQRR
Format: biochemical

Row | SMILES | IC50 [µM]
18 | O=C(Nc1nc2ccc(OC(F)(F)F)cc2s1)C(c1ccccc1)S(=O)(=O)O (stereo not shown) [Compound L319N15-09] | 47
19 | COc1ccc2nc(NC(=O)C(c3ccccc3)S(=O)(=O)O)sc2c1 (stereo not shown) [Compound L319N15-10] | > 200
20 | Nc1ccc2nc(NC(=O)C(c3ccccc3)S(=O)(=O)O)sc2c1 (stereo not shown) [Compound L319N15-12] | 190
21 | O=C(O)c1ccc2nc(NC(=O)C(c3ccccc3)S(=O)(=O)O)sc2c1 (stereo not shown) [Compound L319N15-13] | 83

These molecules were tested against T6, CD45 (Homo sapiens, UniProt P08575) (assay: PTP inhibition assay (pNPP)). Conditions: pNPP at Km, pH 7.0, 25° C.
T6 sequence (P08575 26-1306): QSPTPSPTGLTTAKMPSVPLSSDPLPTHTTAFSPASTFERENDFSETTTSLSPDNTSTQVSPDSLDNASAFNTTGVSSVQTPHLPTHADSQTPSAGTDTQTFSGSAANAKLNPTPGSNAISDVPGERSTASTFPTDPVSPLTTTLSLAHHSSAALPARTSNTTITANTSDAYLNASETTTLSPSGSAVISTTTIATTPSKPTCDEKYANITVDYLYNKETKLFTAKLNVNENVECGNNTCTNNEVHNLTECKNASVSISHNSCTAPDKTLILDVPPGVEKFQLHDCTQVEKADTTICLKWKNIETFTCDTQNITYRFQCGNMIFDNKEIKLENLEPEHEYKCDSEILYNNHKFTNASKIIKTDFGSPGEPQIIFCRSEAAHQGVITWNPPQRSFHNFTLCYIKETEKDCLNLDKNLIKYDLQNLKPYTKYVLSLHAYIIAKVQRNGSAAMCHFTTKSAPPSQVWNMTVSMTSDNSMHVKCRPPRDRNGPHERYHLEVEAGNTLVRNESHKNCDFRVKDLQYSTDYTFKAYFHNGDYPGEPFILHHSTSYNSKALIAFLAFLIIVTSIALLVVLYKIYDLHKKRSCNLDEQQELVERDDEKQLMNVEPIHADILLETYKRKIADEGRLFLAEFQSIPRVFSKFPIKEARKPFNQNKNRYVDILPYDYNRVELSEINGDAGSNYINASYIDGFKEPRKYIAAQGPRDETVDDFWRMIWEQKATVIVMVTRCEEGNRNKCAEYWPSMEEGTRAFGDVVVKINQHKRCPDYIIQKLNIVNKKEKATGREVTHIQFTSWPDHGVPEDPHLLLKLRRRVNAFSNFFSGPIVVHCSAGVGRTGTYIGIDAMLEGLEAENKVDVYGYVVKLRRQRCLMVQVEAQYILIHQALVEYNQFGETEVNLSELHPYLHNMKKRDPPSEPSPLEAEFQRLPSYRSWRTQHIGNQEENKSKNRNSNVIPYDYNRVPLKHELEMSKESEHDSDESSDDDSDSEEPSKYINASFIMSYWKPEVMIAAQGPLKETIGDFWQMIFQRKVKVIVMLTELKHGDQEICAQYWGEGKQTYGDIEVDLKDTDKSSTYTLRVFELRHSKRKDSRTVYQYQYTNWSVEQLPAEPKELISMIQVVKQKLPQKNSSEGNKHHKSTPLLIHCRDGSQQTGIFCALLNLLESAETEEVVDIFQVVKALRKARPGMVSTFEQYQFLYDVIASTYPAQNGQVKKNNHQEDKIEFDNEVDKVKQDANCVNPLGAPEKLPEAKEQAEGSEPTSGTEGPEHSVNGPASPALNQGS
Format: biochemical

Row | SMILES | IC50 [µM]
22 | O=C(Nc1nc2ccc(OC(F)(F)F)cc2s1)C(c1ccccc1)S(=O)(=O)O (stereo not shown) [Compound L319N15-09] | 80
23 | COc1ccc2nc(NC(=O)C(c3ccccc3)S(=O)(=O)O)sc2c1 (stereo not shown) [Compound L319N15-10] | > 200
24 | Nc1ccc2nc(NC(=O)C(c3ccccc3)S(=O)(=O)O)sc2c1 (stereo not shown) [Compound L319N15-12] | 160
25 | O=C(O)c1ccc2nc(NC(=O)C(c3ccccc3)S(=O)(=O)O)sc2c1 (stereo not shown) [Compound L319N15-13] | 90
